Four compounds from patent US20110136839A1, “COMBINATION OF TWO ANALGESIC CHEMICALS” (priority 2009, published 2011) can be followed below.

The subject of series [1] is carrageenan-evoked hyperalgesia. Nature of the series: Carrageenan model of inflammation, thermal hyperalgesia (paw withdrawal latency). It counts as in vivo. Conditions: rat; for reversal of the hypoalgesia by naloxone (opioid receptor antagonist): drug i.pl. at 1 hour, naloxone chloride or naloxone methiodide s.c. at 24 hours after carrageenan; for effect on carrageenan-evoked thermal hyperalgesia (paw withdrawal latency): intraplantar (local) injection in the inflamed paw 1 hour after carrageenan. The method, then: Rats received a subcutaneous injection of carrageenan (2% in saline, 100 μl) in the right hindpaw (intraplantar injection). Drug or vehicle were administered intraplantarly (i.pl., 50 μl) 1 hour after carrageenan injection and behavioral testing was performed at various time points. Nociceptive threshold responding to heat was determined as described before (Williams et al., 1990; Wisden et al., 1990: Jiang et al., 2006). Briefly, rat was placed in a device that held the body without restraining the head and legs. Noxious heat stimulation was carried out by immersing the hindpaw up to the ankle joint into a slowly stirred water bath at 47.5° C. while holding the animal with the device. […] Paw withdrawal latency for any test time point was measured twice at 3-min intervals and the mean values were calculated. Baseline latency was measured 10 min before drug or vehicle administration.
Effects of ketanserin on carrageenan-evoked hyperalgesia are illustrated in FIG. 1. Paw withdrawal latencies in seconds were measured in plantar test at the various time points. Data were normalized as percentage of pretreatment baseline (100%) and expressed as the mean ±SEM (standard error of mean).
Paw withdrawal latencies in seconds were determined in plantar test at the various time points. Data were normalized as percentage of pretreatment baseline (100%) and expressed as the mean ±SEM. Carrageenan and ketanserin (20 μg) were given i.pl. into unilateral hindpaw at 0 and 1 hour, respectively.
Paw withdrawal latencies in seconds were examined at the various time points. Data were normalized as percentage of pretreatment baseline (100%) and expressed as the mean ±SEM.
Carrageenan and […] (30 μg) were given i.pl. into unilateral hindpaw at 0 and 1 hour, respectively. Then naloxone chloride (5 mg/ml/kg) or naloxone methiodide (10 mg/ml/kg) or saline (1 ml/kg) was injected s.c. (subcutaneous injection) at 24hours after carrageenan. Paw withdrawal latencies in seconds were measured at the various time points.
Carrageenan (2%, 100 μl) was administered i.pl. at 0 hour and saline (50 μl, i.pl.) or ketanserin (2 μg, i.pl.)+WAY100635 (3 μg, i.pl.) at 1 hour. The results are illustrated in FIG. 5. Paw withdrawal latencies in seconds were examined at the various time points.
Carrageenan model—See those described before.

Series [2] can be described thus: Animal study of blood pressure and heart rate. It counts as in vivo. The settings on record: subcutaneous injection at 0.5 mg/kg.
In another series the test system is neuropathic pain (SNL). As to the kind of experiment: Neuropathic pain model (spinal nerve ligation), thermal threshold of the hindpaw. The format is in vivo, rat. The method, then: PWL responding to heat stimulus ipsilaterally was measured.
Paw withdrawal latency was measured.

The test system of series [3] is carrageenan-evoked hyperalgesia. Nature of the series: Carrageenan model of inflammation, thermal hyperalgesia (paw withdrawal latency). It counts as in vivo. The settings on record: rat; for effect on thermal hyperalgesia in carrageenan model (paw withdrawal latency): subcutaneous (systemic) injection 1 hour after carrageenan; for effect on inflammatory hyperalgesia at higher dose (FIG. 7D): subcutaneous injection at 1 hour, doses higher than those in FIG. 7C.

“Also recorded” adds a separate entry of the source.

In the case of `COc1ccccc1N1CCN(CCN(C(=O)C2CCCCC2)c2ccccn2)CC1` [WAY100635], in series [1], the “reversal of the hypoalgesia by naloxone (opioid receptor antagonist)” value (shortened to “reversal of the hypoalgesia by naloxone”) is listed as “mediated by opioid analgesia mechanism” and the “effect on carrageenan-evoked thermal hyperalgesia (paw withdrawal latency)” value is listed as “dose-dependently produces hypoalgesia”.
On to `O=C(c1ccc(F)cc1)C1CCN(CCn2c(=O)[nH]c3ccccc3c2=O)CC1` [ketanserin], for which, in series [2], the blood pressure entry is “does not alter” and the heart rate entry is recorded as “does not alter”. Moreover, in series [1], the “reversal of the hypoalgesia by naloxone” value is recorded as “abolished by i.p. naloxone” and the “effect on carrageenan-evoked thermal hyperalgesia (paw withdrawal latency)” value is given as “dose-dependently produces hypoalgesia; also recorded: prolonging in paw withdrawal latency”. Besides, the “reversal of the hypoalgesia by naloxone” value in series [1] (listed as Ketanserin) was “mediated by opioid analgesia mechanism”. For the same compound, in the series with neuropathic pain (SNL) (rat neuropathic pain model, thermal, s.c. injection), the tolerance result was “without tolerance”. Moreover, the “thermal nociceptive threshold in Chung's model of neuropathic pain (paw withdrawal latency)” value in the series with neuropathic pain (SNL) (rat, s.c. starting at day 4 after spinal nerve ligation) is given as “dose-dependently inhibits”. In series [3], the “effect on thermal hyperalgesia in carrageenan model (paw withdrawal latency)” value was “produces significant inhibition on the nociceptive threshold” and the “effect on inflammatory hyperalgesia at higher dose (FIG. 7D)” value is “exerted stronger effect”.
As to `COc1cc2nc(N3CCN(C(=O)c4ccco4)CC3)nc(N)c2cc1OC` [prazosin], the “effect on carrageenan-evoked thermal hyperalgesia (paw withdrawal latency)” value in series [1] is “failed to alter the carrageenan-evoked response”.
With `CC(C)NCC(O)COc1cccc2ccccc12` (stereo not drawn) [propranolol], in series [2], the blood pressure entry is given as “does not alter” and the heart rate entry is listed as “does not alter”. Moreover, in series [1], the “reversal of the hypoalgesia by naloxone” value is recorded as “abolished by i.p. naloxone” and the “effect on carrageenan-evoked thermal hyperalgesia (paw withdrawal latency)” value is on record as “prolonging in paw withdrawal latency”. Besides, in series [3], the “effect on thermal hyperalgesia in carrageenan model (paw withdrawal latency)” value was “produces significant inhibition on the nociceptive threshold” and the “effect on inflammatory hyperalgesia at higher dose (FIG. 7D)” value is “exerted stronger effect”.
